Experimental data as given in paper PMC11266932, “Enhanced absorption of prenylated cinnamic acid derivatives from Brazilian green propolis by turmeric in humans and rats” (Food Science & Nutrition, 2024).
Like-named read-outs stand apart in the source and are kept apart here.

Tests used:
[1] = Animal study: plasma concentration and AUC of cinnamic acid derivatives after intragastric BGP with or without each herbal extract; assay type: in vivo, Wistar/ST rats; conditions: rats
Method: Wistar/ST rats (male, 7 weeks old) were purchased from Japan SLC (Shizuoka, Japan). […] The rats were quarantined and acclimatized under the above conditions for 1 week and divided into six groups (eight rats/group) according to their average body weight (240–260 g). Each test sample listed in Table 1 was dissolved in 10% propylene glycol (1 mL per rat) and administered intragastrically to the rats after an overnight fasting period with free access to water. […] The collected samples were centrifuged at 1500 g for 10 min at 4°C to separate the plasma and preserved at −80°C until further sample preparation.
(§1) Briefly, 50 μL of plasma was treated with a sulfatase/β‐glucuronidase solution (sulfatase 15 units/sample) in 100 mM sodium acetate and 5 mM ascorbate at 37°C for 1 h. Following the incubation, 850 μL of methanol was added to the samples to stop the deconjugation reaction, after which centrifugation was performed at 2000 g for 10 min at 23 ± 2°C. The supernatant was evaporated under nitrogen gas and then reconstituted in a fixed volume of methanol. The samples were filtered through a 0.22 μm PTFE membrane and then analyzed by LC–MS/MS.
(§2) Briefly, 5 μL of the sample was injected into a reversed‐phase column (Acquity UPLC BEH C18, 2.1 × 100 mm, ID. 1.7 μm; Waters, Milford, MA, USA) held at 30°C. The elution was performed using solvent A (0.1% formic acid) and solvent B (acetonitrile) at a flow rate of 0.3 mL/min. The gradient profiles were as follows: 5% B (0–2 min), 5–95% B (2–22 min), 95% B (22–25 min), and 5% B (25–30 min). Tandem mass spectrometry (MS/MS) was conducted using an ion trap mass spectrometer with a heated electrospray ion source (HESI) in both positive and negative ionization modes (scan range m/z 70–1000). […] External standard curves for cinnamic acid derivatives were generated using eight concentrations of authentic standard solutions (1, 5, 10, 50, 100, 250, 500, and 1000 ng/mL).
(§3) Quantification of cinnamic acid derivatives in the plasma was performed using the Trace Finder software version 4.1 (Thermo Scientific). The plasma concentration versus time data for the analytes obtained from each human and rat were entered into a Microsoft Excel spreadsheet. The area under the plasma concentration–time curve (AUC) was calculated using the linear trapezoidal rule, extending to the last sampling point.

[2] = Clinical trial: plasma concentration and AUC of cinnamic acid derivatives after ingestion of BGP alone or BGP plus herbal extract mixture; assay type: in vivo; conditions: humans, BGP and herbal extracts co-administered; for fold increase of AUC versus BGP administered alone: 0–24 h; for AUC: plasma 0–24 h, after enzymatic deconjugation, mean ± SD, n = 6
Method: Six volunteers (three males and three females) completely understood the study protocol and consented to participate in the research. The following exclusion criteria were used for shortlisting participants: past or present medical history (asthma, significant allergies, heart, liver, kidney, and urinary tract disease); prescribed medication; pregnancy; smoking (>20 cigarettes/day); alcohol consumption (>500 mL/day of beer); use of dietary supplements and healthy foods; and participation in other clinical trials. The participants were instructed to refrain from consuming propolis and propolis‐containing foods and beverages during the study period and 1 week prior to the start of the study. After a 12‐h fast, the participants were given a test food comprising the encapsulated BGP powder or a mixture of the BGP powder and herbal extracts in two experimental periods separated by 1 week. […] The collected samples were centrifuged at 1500 g for 3 min at 23 ± 2°C to separate the plasma, which was subsequently preserved at −80°C until further sample preparation.
as §1, §2, §3

[3] = BGP co-administered with turmeric extract

change of AUC versus BGP alone (in words) ([1]; BGP co-administered with gotu kola extract) | change of AUC versus BGP alone (in words) [1, 3] | AUC ([2]; both sexes, human, oral, read-out: AUC) [ng·h/mL] | SMILES | fold increase of plasma concentration versus BGP alone ([1]; BGP + turmeric extract, 30 min after administration) [fold] | fold increase of plasma concentration versus BGP alone ([1]; BGP + turmeric extract, 3 h after administration) [fold] | fold increase of plasma concentration versus BGP alone ([1]; BGP + turmeric extract, 6 h after administration) [fold] | fold increase of AUC versus BGP administered alone [1, 3] [fold] | fold increase of AUC versus BGP administered alone [2] [fold] | AUC [2] [ng·h/mL] | change of plasma concentration versus BGP alone (in words) ([1]; BGP + turmeric extract, at 30 min and 3 h)
 |  |  | CC(C)=CCc1cc(/C=C/C(=O)O)cc(C/C=C(\C)CO)c1O [capillartemisin A] | 2.2 | 1.7 | 3.0 | 1.7 | 1.6 | 57.0 ± 16.5 | 
tended to increase | tended to increase | 34.5 ± 12.2 | CC(C)=CCc1cc(C=CC(=O)O)cc(O)c1O [3,4‐dihydroxy‐5‐prenylcinnamic acid] |  |  |  |  | 1.8 |  | significant increases or increasing trends
